In patent publication EP2769738B1, “Conjugated TLR7 and/or TLR8 and TLR2 polycationic agonists” (Invivogen, priority 2013, dated 2014):
“And” between values parts separate entries of the source, which are not always exact repeats. Equal entries are not always repeated.

Experiments:
B16-F1 cells = test: Cell transfection with SEAP plasmid, B16-F1; assay type: cell-based, mouse; conditions: Figure 5B; in complex with pVitro14 LGFP SEAP plasmid, 48 hours, SEAP reporter gene expression
Description: (§1) The TLR7-TLR2 molecules were tested for their ability as polyamine molecules to transport plasmid DNA (pDNA) into cells. The pVitro14 LGFP SEAP plasmid (InvivoGen) was complexed to TLR7-TLR2 polyamine molecules and to the control cationic lipid transfection agent, LyoVec™ (InvivoGen). The human HEK293 (ATCC, CRL-1573) and mouse B16-F1 melanoma (ATCC, CRL-6323) cell lines were seeded at a density of 50 000 cells/well and 20 000 cells/well respectively, in the absence or presence of different volumes of the plasmid encoding for the SEAP protein in complex with TLR7-TLR2 polyamine molecules for 48 hours at 37°C and 10% CO2. Transfection efficiency was assessed by measuring SEAP reporter gene expression: 20 µl of supernatant was sampled and mixed with 180 µl of QUANTI-Blue™ Detection (InvivoGen). In the presence of alkaline phosphatase SEAP, the color of QUANTI-Blue™ changes from pink to purple/blue. The intensity of the blue hue reflects the activity of SEAP. The levels of SEAP secretion were determined quantitatively by reading the OD at 620-655 nm using a spectrophotometer, iMark™ Microplate Reader (BIO-RAD).

B16-F1 tumor = test: Mouse B16-F1 tumor model, molecule alone; assay type: in vivo, C57BL/6 mice; conditions: intra-tumoral, 3 injections
Description: Measurements were performed under gas anesthesia.
The second group received intra-tumoral injections of CL413 molecule alone (a TLR7-TLR2 Pam2CSK4-based molecule). Third and forth groups received intra-tumoral injections of the TLR2 ligand, Pam2CSK4 alone, and the TLR7 ligand alone, respectively. A fifth group received a combined treatment of Pam2CSK4 and TLR7 ligand, in solution at the equivalent molecule quantity of the respective TLR2 and TLR7 moieties in CL413 (in 100µl Bionolyte G5® with Pluronic® F-68 2%) for a total of 3 injections.

[1] = Determination of nanoparticle (lipoplex) size by dynamic light scattering; assay type: physicochemical; conditions: ratio 3:24 (w:w); for Conformity (C)/ Non-conformity (NC) / Mean Diameter (nm): complexes with pDNA; for Mean Diameter (nm): dynamic light scattering at 25°C; for Mean Diameter (nm) / PDI: triplicate measurements; for PDI: polydispersity index of complexes with pDNA, 25°C
Description: • 1. Preparative HPLC Method: Unless otherwise indicated, the compounds described herein were purified by RP-MPLC ARMEN® Spot Flash Liquid Chromatography (ARMEN Instrument, Saint Ave, France) on a preparative column (SVF D26) packed with 25-40 µm C18 resin (Merck chimie SAS), by applying a linear gradient of 0-10% MeCN in NH4OAc (10 mM) solution (pH = 9) over 60 min at a 15 mL/min flow rate. The purification was monitored at 254 nm. Suitable fractions were pooled and lyophilised. • 2. Proton NMR Spectra: Unless otherwise indicated, all ^1H NMR spectra were run on a Bruker series 300 MHz instrument. Where so characterized, all observed protons are reported as parts-per-million (ppm) downfield from tetramethylsilane (TMS) or other internal reference in the appropriate solvent indicated. NMR spectra were recorded on a Brucker 300 spectrometer. For ^1H (300 MHz) spectra δ values were referenced to CDCI3-d1 (7.26 ppm), DMSO- d6 (2.50 ppm), D2O-d2 (4.79 ppm) or MeOD-d4 (3.31 ppm). The peak patterns are indicated as follows: s: singlet, sl: large singlet, d: doublet, t: triplet, q: quartet, m: multiplet. • 3. Mass Spectra (MS): Analyses were run on an Agilent Model 6130 quadrupole MS. Unless otherwise indicated, all mass spectral data for starting materials, intermediates and/or exemplary compounds are reported as mass/charge (m/z), having an (M+H)^+ molecular ion. The molecular ion reported was obtained by electrospray detection method (commonly referred to as an ESI MS). Compounds having an isotopic atom, such as bromine and the like, are generally reported according to the detected isotopic pattern, as appreciated by those skilled in the art. • 4. Particle size: Particle size was determined using a Malvern Nanosizer (Malvern, Worcestershire, UK) and Malvern ZETASIZER.RTM. (Malvern, Worcestershire, UK). • 5. Naming Convention The compounds disclosed and described herein have been named using the naming convention provided with Chem-Draw Ultra 11.0 software, available in Chem. Office. In some instances, compounds were named with the term "spermine" inserted where appropriate. For example, where the spermine is substituted with Boc, "N1,N5,N10-TriBoc-spermine" is added to the Chem-Draw nomenclature in the appropriate place. Chem-Draw utilizes the ISIS Draw software compound naming convention, as appreciated by those skilled in the art.
For pDNA:TLR7-TLR2 polyamine molecules complexes, a ratio pDNA:TLR7-TLR2 polyamine molecules of 3:24 (w:w) was prepared in serum-free culture medium or in 5% glucose. The TLR7-TLR2 conjugated compound of interest was prediluted in serum-free culture medium or in 5% glucose and incubated for 5 minutes at room temperature, prior to the addition of an endotoxin-free, salt-free preparation of pDNA. In these experiments, the pBsr2pCpGLacZh plasmid was used in the pDNA:TLR7-TLR2 polyamine molecule complexes. The pDNA:TLR7-TLR2 polyamine molecule mixtures were incubated at room temperature for 30 minutes to allow the formation of the complex. The control used in these experiments was the cationic lipid transfection agent LyoVec™ (InvivoGen) prepared in a similar manner.
In order to confirm that TLR7-TLR2 polyamine molecules complex DNA, lipoplex size was determined. The physical characterization of complex was achieved by dynamic light scattering using the analytical equipment for laser diffraction Zetasizer Nano-ZS (Malvern). pDNA:TLR7-TLR2 polyamine molecule complexes were prepared as described above. Subsequently, 50µl of pDNA: TLR7-TLR2 polyamine molecule complexes were placed into a disposable sizing cuvette and measurements were made under conditions defined according to manufacturer's instructions. The measurements were made at 25°C in triplicate and a size distribution report was obtained. […]

HEK293 cells = test: Cell transfection with SEAP plasmid, HEK293; assay type: cell-based, human; conditions: Figure 5A; in complex with pVitro14 LGFP SEAP plasmid, 48 hours, SEAP reporter gene expression
Description: as §1

Row | SMILES | ability to transfect B16-F1 cells (B16-F1 cells) | tumor volume (B16-F1 tumor; Figure 8A, by day 23, compared to Pam2CSK4 alone, TLR7 ligand alone and vehicle control) | mice still alive (survival) (B16-F1 tumor; Figure 8B, by day 42) [%] | Conformity (C)/ Non-conformity (NC) [1] | Mean Diameter (nm) [1] | PDI [1] | ability to transfect HEK293 cells (HEK293 cells)
1 | CCCCCCCCCCCCCCCC(=O)OCC(CSC[C@@H](N)C(=O)N[C@@H](CO)C(=O)N[C@@H](CCCCN)C(=O)N[C@@H](CCCCN)C(=O)N[C@@H](CCCCN)C(=O)N[C@H](CCCCN)C(=O)Nc1ccc(Cn2c(O)nc3c(N)nc(NCCCC)nc32)cc1)OC(=O)CCCCCCCCCCCCCCC (stereo in doubt) [CL413, (6S,9S,12S,15S,18S,21R)-6,25-diamino-21-(4-((6-amino-2-(butylamino)-8-hydroxy-9H-purin-9-yl)methyl)phenylcarbamoyl)-12,15,18-tris(4-aminobutyl)-9-(hydroxylmethyl)-7,10, 13,16,19-pentaoxo-4-thia-8,11,14,17,20-pentaazapentacosane-1,2-diyl dipalmitate] | lack the ability to transfect cells | no increase in tumor volume | 100 | C (ranged between 140 and 200 nm in diameter were considered to show conformity) | 140,1 nm and 140,2 nm and 139,1 nm | 0,178 and 0,187 and 0,229 | lack the ability to transfect cells
2 | CCCCCCCCCCCCCCCC(=O)N[C@@H](CSCC(COC(=O)CCCCCCCCCCCCCCC)OC(=O)CCCCCCCCCCCCCCC)C(=O)N[C@@H](CO)C(=O)N[C@@H](CCCCN)C(=O)N[C@@H](CCCCN)C(=O)N[C@@H](CCCCN)C(=O)N[C@@H](CCCCN)C(=O)Nc1ccc(Cn2c(O)nc3c(N)nc(NCCCC)nc32)cc1 (stereo partly drawn) [CL534, ((6R,9S,12S,15S,18S,21S)-25-amino-21-(4-((6-amino-2-(butylamino)-8-hydroxy-9H-purin-9-yl)methyl)phenylcarbamoyl)-12,15,18-tris(4-aminobutyl)-9-(hydroxylmethyl)-7,10,13,16,19-pentaoxo-6-palmitamido-4-thia-8,11,14,17,20-pentaazapentacosane-1,2-diyl dipalmitate] | lack the ability to transfect cells |  |  | C (ranged between 140 and 200 nm in diameter were considered to show conformity) | 165,5 nm and 187,1 nm and 182,3 nm | 0,352 and 0,394 and 0,354 | lack the ability to transfect cells
